{"source": "patent US4603123A", "about": "“Compounds having antiinflammatory activity, obtained by complexation of piroxican with β-cyclodextrin, and pharmaceutical compositions containing them” (priority 1984, dated 1986)", "key": {"[1]": {"assay": "Gastrolesive action in rats and therapeutic index UD0/ED30", "conditions": "in vivo, rat", "description": "The gastrolesive action was tested on rats fastened for 18 hours, through macroscopical examination of the gastric mucosa, 5 hours after the administration of the substances under investigation. For each treatment, the regression lines log. of the dosage-mm of ulceration (single values for each animal) were determined. These lines allowed to calculate, for each compound, the UD0 values i.e., the maximum dosages at which no lesions are observed.\nFinally, it was also determined the therapeutic index of the new compound piroxicam/β-cyclodextrin, in comparison with piroxicam. Said index was expressed as the ratio UD0 /ED30 wherein UD0 and ED30 are as above defined."}, "[2]": {"system": "carrageenin induced oedema", "assay": "Carrageenin induced oedema test in rats (antiinflammatory activity)", "format": "in vivo, male Crl:CD(SD) rats", "conditions": "oral, rat", "description": "The antiinflammatory activity was determined by means of the carrageenin induced oedema test, according to the methodology reported by C. A. Winter et al in Proc. Soc. Exptl. […] As the test animals, male Crl:CD(SD) rats, weighing 150-170 g, were employed. The animals were housed under standard conditions and fastened for 18 hours before the beginning of the experiment. Water was available ad libitum.\nThe obtained results were expressed both as ED50 values, determined in correspondence of the activity peak on the regression line log. of the dosage-% inhibition of the oedema, and as ED30 values, calculated on the regression lines log. of the dosage-% inhibition of the oedema over the controls, determined as the mean value of AUC (area under Curve representing the development of the paw volume in the time).\nIn addition, it was determined the kinetic of the activity of the two formulations under investigation, by calculating the ED30 values at 2, 3, 4 and 6 hours since the carrageenin injection."}, "gastrointestinal mucosa": {"system": "gastrointestinal mucosa", "conditions": "background; cited from earlier work"}, "[3]": {"system": "phenylquinone induced writhing", "assay": "Phenylquinone induced writhing test (kinetic of the analgesic activity)", "format": "in vivo, female NMRI mice", "conditions": "mouse, oral, 0.5 mg/kg of active substance", "description": "The employed experimental model is a slight modification of that described by Siegmund, J. Pharm. Exptl. Ther., 119, 184, 1957.\nFemale NMRI mice, housed under standard conditions, fastened for 18 hours, were employed as the test animals. Water was available ad libitum.\nThe compounds under study were orally administered by oesophageal gavage, suspended in an aqueous solution containing 0.5% of carboxymethylcellulose, at a concentration corresponding to 0.5 mg/kg of active substance (piroxicam)."}, "[4]": {"conditions": "background; cited from earlier work"}, "[5]": {"assay": "Plasma kinetics of piroxicam in the rabbit after oral administration", "format": "in vivo, male New Zealand White rabbits", "description": "For these investigations, male New Zealand White rabbits, weighing 2.5-3.0 kg were employed. The animals were kept at constant temperature and fastened for the 17 hours preceeding the experiments. Water was given ad libitum. […] The determination of the plasma levels of the active principle, at the different times since the administration, was carried out by High Pressure Liquid Chromatography (HPLC)."}, "[6]": {"assay": "Plasma kinetics of piroxicam in the dog after oral administration", "design": "species or system Beagle dogs", "conditions": "in vivo, 10 mg/kg of active ingredient", "description": "The dogs were kept at constant temperature and fastened at least for 17 hours before the beginning of the experiment. Water was available ad libitum.\nThe two substances to be investigated were orally administered at a dosage corresponding to 10 mg/kg of active ingredient, according to a crossover scheme. The determination of the plasma concentrations of the active ingredient, at a different time intervals since the administration, was carried out by High Pressure Liquid Chromatography (HPLC)."}, "[7]": {"assay": "Dissolution test in water, Dissolution Tester, 25° C.", "description": "7.5 Grams of piroxicam/β-cyclodextrin were poured into 150 ml of water at 25° C. under stirring. At predetermined time intervals, samples of 5 ml of suspension were collected and filtered through 0.2μ. […] were diluted 1 to 500 with 0.1 N NaOH in methanol immediately after the filtration. The whole was again filtered through paper.\nThe amount of piroxicam in the solution was spectrophotometrically determined at 358 nm against a solution of 0.1 N NaOH in methanol."}, "[8]": {"conditions": "plasma, 10 mg/kg of active ingredient, mean"}}, "note": "Like-named read-outs stand apart in the source and are kept apart here."}
{"smiles": "CN1C(C(=O)Nc2ccccn2)=C(O)c2ccccc2S1(=O)=O", "note": "[Piroxicam, 4-hydroxy-2-methyl-N-2-pyridyl-2H-1,2-benzothiazine-3-carboxamide-1,1-dioxide]", "values": [{"measurement": "NOAEL at 5 h", "setting": "[1]; 5 hours after administration, dosage as piroxicam, read-out: Gastrolesive activity UD0 (maximum dosage at which no lesions are observed)", "value": 1.1, "unit": "mg/kg"}, {"measurement": "selectivity ratio", "setting": "[1]; piroxicam = 1, read-out: Relative therapeutic index", "value": 1}, {"measurement": "selectivity ratio", "setting": "[1]; read-out: Absolute therapeutic index (UD0/ED30)", "value": 0.44}, {"measurement": "ED30", "setting": "[2]; Rat2, 2 h since carrageenin injection, read-out: ED30 at 2 h", "value": 0.6, "unit": "mg/kg"}, {"measurement": "ED30", "setting": "[2]; 3 h since carrageenin injection, read-out: ED30 at 3 h", "value": 1.6, "unit": "mg/kg"}, {"measurement": "ED30", "setting": "[2]; 4 h since carrageenin injection, read-out: ED30 at 4 h", "value": 3.1, "unit": "mg/kg"}, {"measurement": "ED30", "setting": "[2]; 6 h since carrageenin injection, read-out: ED30 at 6 h", "value": 9.7, "unit": "mg/kg"}, {"measurement": "ED30", "setting": "[2]; AUC of paw volume in time, dosage as piroxicam, read-out: Activity on AUC ED30", "value": 2.5, "unit": "mg/kg"}, {"measurement": "ED50", "setting": "[2]; at the activity peak, dosage as piroxicam", "value": 2.3, "unit": "mg/kg"}, {"measurement": "effects on the gastrointestinal mucosa", "setting": "gastrointestinal mucosa", "value": "responsible of lesive effects on the gastrointestinal mucosa"}, {"measurement": "time of the activity peak (analgesic)", "setting": "[3]", "value": 20, "unit": "min"}, {"measurement": "percentage of the maximum evidenced inhibition (writhing) at 5 minutes", "setting": "[3]; 5 minutes after the administration", "value": 78, "unit": "%"}, {"measurement": "solubility in water", "setting": "[4]", "value": "practically insoluble in water"}, {"measurement": "bioavailability", "setting": "[5]", "value": "almost complete bioavailability"}, {"measurement": "Tmax", "setting": "[5]; plasma, 10 mg/kg of active ingredient", "value": 2.3, "unit": "h"}, {"measurement": "concentration at 0.5 h", "setting": "[5]; plasma, 10 mg/kg of active ingredient, 0.50 h, mean", "value": 4300, "unit": "ng/mL"}, {"measurement": "concentration at 1 h", "setting": "[5]; plasma, 10 mg/kg of active ingredient, 1 h, mean", "value": 7400, "unit": "ng/mL"}, {"measurement": "concentration at 2 h", "setting": "[5]; plasma, 10 mg/kg of active ingredient, 2 h, mean", "value": 10900, "unit": "ng/mL"}, {"measurement": "concentration at 4 h", "setting": "[5]; plasma, 10 mg/kg of active ingredient, 4 h, mean", "value": 10100, "unit": "ng/mL"}, {"measurement": "concentration at 8 h", "setting": "[5]; plasma, 10 mg/kg of active ingredient, 8 h, mean", "value": 6500, "unit": "ng/mL"}, {"measurement": "concentration at 24 h", "setting": "[5]; plasma, 10 mg/kg of active ingredient, 24 h, mean", "value": 300, "unit": "ng/mL"}, {"measurement": "AUC(0-t) at 2 h", "setting": "[5]; [8]", "value": 13200, "unit": "ng·h/mL"}, {"measurement": "AUC(0-t) at 24 h", "setting": "[5]; [8]", "value": 121000, "unit": "ng·h/mL"}, {"measurement": "Cmax", "setting": "[5]; [8]", "value": 11700, "unit": "ng/mL"}, {"measurement": "Tmax", "setting": "[6]", "value": 1.8, "unit": "h"}, {"measurement": "concentration at 0.25 h", "setting": "[6]; 0.25 h, mean", "value": 1000, "unit": "ng/mL"}, {"measurement": "concentration at 0.5 h", "setting": "[6]; 0.50 h, mean", "value": 2800, "unit": "ng/mL"}, {"measurement": "concentration at 1 h", "setting": "[6]; 1 h, mean", "value": 12700, "unit": "ng/mL"}, {"measurement": "concentration at 2 h", "setting": "[6]; 2 h, mean", "value": 19400, "unit": "ng/mL"}, {"measurement": "concentration at 4 h", "setting": "[6]; 4 h, mean", "value": 18900, "unit": "ng/mL"}, {"measurement": "concentration at 8 h", "setting": "[6]; 8 h, mean", "value": 14200, "unit": "ng/mL"}, {"measurement": "concentration at 24 h", "setting": "[6]; 24 h, mean", "value": 11500, "unit": "ng/mL"}, {"measurement": "concentration at 48 h", "setting": "[6]; 48 h, mean", "value": 9200, "unit": "ng/mL"}, {"measurement": "concentration at 72 h", "setting": "[6]; 72 h, mean", "value": 3000, "unit": "ng/mL"}, {"measurement": "AUC(0-t) at 2 h", "setting": "[6]; mean", "value": 20400, "unit": "ng·h/mL"}, {"measurement": "AUC(0-t) at 72 h", "setting": "[6]; mean", "value": 724000, "unit": "ng·h/mL"}, {"measurement": "Cmax", "setting": "[6]; mean", "value": 20000, "unit": "ng/mL"}, {"measurement": "solubility at 0.5 h", "setting": "[7]", "value": 111, "unit": "µg/mL"}]}
